Reference: ChEMBL document CHEMBL1145787, “Synthesis and structure-activity relationship of N-substituted 4-arylsulfonylpiperidine-4-hydroxamic acids as novel, orally active matrix metalloproteinase inhibitors for the treatment of osteoarthritis” (J Med Chem, 2003)

Columns and labels:
[1] = In vivo inhibition of Matrix metalloprotease enzyme by Sponge-wrapped cartilage assay, value are relative to activity of RS-130830 (27+/-3) at 10 mg/kg. po. bid; assay type: functional
Interstitial collagenase = target: T1, Interstitial collagenase (Homo sapiens, UniProt P03956); assay: In vitro inhibitory activity against matrix metalloprotease-1
T1 sequence (P03956 whole entry): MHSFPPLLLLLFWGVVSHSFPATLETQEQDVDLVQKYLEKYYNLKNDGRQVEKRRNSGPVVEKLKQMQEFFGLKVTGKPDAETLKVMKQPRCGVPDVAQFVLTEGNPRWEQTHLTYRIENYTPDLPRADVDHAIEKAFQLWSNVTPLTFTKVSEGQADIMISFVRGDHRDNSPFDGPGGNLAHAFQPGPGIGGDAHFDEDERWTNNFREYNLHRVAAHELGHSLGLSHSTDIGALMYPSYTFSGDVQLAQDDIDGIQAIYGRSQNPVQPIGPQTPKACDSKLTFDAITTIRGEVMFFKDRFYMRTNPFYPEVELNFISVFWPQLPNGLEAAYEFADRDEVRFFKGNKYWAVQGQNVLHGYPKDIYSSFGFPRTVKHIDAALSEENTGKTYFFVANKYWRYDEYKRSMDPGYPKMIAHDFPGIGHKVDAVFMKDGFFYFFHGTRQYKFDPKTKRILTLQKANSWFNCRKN

Collagenase 3 = Collagenase 3 (Homo sapiens, UniProt P45452)
[2] = In vivo inhibitory activity against Matrix metalloprotease enzyme by dialysis implant assay, value are relative to activity of CGS-27023 (64+/-3) at 25 mg/kg. po; assay type: functional
[3] = target: Matrix metalloproteinase-9 (Homo sapiens, UniProt P14780); assay: In vitro inhibitory activity against matrix metalloprotease-9.
[4] = target: Disintegrin and metalloproteinase domain-containing protein 17 (Homo sapiens, UniProt P78536)
[5] = In vivo inhibitory activity against Matrix metalloprotease enzyme by dialysis implant assay, value is relative to activity of CGS-27023 (65+/-2) at 25 mg/kg. po; assay type: functional
[6] = In vivo inhibition of Matrix metalloprotease enzyme by Sponge-wrapped cartilage assay, value is relative to activity of RS-130830 (39+/-2) at 10 mg/kg. po. bid; assay type: functional

Matrix metalloproteinase-9, sequence (P14780 whole entry, the tested form may be a part): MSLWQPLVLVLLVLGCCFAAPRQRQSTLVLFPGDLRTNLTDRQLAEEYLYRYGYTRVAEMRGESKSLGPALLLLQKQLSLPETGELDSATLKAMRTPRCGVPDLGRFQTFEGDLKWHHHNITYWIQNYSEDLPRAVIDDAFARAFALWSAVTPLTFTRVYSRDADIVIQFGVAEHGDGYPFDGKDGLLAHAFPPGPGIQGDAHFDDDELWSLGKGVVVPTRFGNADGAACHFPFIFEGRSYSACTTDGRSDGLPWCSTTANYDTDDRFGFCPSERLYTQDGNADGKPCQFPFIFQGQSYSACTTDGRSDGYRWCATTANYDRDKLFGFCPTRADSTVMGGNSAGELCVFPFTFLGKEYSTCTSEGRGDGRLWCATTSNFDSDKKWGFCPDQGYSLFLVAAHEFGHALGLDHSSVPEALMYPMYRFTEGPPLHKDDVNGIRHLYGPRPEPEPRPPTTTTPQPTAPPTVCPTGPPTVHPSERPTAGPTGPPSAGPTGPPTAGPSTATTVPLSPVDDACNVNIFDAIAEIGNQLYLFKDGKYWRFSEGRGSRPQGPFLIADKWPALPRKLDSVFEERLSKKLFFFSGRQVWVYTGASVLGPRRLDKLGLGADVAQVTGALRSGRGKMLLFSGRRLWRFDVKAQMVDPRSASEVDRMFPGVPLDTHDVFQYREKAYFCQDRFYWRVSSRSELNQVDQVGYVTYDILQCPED
Disintegrin and metalloproteinase domain-containing protein 17, sequence (P78536 whole entry, the tested form may be a part): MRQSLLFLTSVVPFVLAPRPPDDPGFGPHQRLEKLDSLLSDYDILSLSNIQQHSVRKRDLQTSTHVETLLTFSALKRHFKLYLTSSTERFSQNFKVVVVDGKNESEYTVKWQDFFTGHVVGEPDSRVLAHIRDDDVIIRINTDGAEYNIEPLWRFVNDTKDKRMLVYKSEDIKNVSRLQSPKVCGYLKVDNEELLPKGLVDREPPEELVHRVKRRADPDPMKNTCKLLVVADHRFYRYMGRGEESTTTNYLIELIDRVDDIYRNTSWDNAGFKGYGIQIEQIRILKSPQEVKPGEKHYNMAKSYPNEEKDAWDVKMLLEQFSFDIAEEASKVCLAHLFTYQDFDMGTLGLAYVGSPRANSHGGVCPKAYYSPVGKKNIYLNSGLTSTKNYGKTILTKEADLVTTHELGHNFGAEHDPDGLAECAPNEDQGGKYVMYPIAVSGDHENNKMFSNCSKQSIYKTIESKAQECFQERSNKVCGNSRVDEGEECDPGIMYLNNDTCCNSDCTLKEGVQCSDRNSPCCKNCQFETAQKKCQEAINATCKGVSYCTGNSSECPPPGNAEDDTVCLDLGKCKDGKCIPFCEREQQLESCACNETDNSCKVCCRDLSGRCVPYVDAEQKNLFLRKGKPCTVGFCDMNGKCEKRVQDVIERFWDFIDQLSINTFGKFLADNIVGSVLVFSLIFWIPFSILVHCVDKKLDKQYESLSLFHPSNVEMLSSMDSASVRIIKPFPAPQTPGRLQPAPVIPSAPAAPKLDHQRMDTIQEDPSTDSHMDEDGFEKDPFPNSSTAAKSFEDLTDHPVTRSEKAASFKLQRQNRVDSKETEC

## CCC(CC)Oc1ccc(S(=O)(=O)C2(C(=O)NO)CCN(Cc3ccccc3)CC2)cc1
[1]
  inhibition in vivo at 10 mg/kg: 27%
Interstitial collagenase
  IC50: 3160 nM
Collagenase 3
  IC50: 5 nM
[2]
  inhibition in vivo at 25 mg/kg: 68%
[3]
  IC50: 14 nM
[4]
  IC50: 39 nM

## CN1CCC(C(=O)NO)(S(=O)(=O)c2ccc(Oc3ccc(Cl)cc3)cc2)CC1
[5]
  inhibition in vivo at 25 mg/kg: 91%
Collagenase 3
  IC50: 2 nM
[6]
  inhibition in vivo at 10 mg/kg: 73%
